One test concerns the target recombinant human MetAP2 (Homo sapiens (Human), UniProt P50579). The test is described as follows: recombinant human MetAP2 enzyme inhibition assay. The format is biochemical. As for the experimental part: Compounds are tested for their capacity to inhibit recombinant human MetAP2 activity using the following assay.
Flag tagged Human recombinant MetAP2 expressed and isolated for use as the enzyme source. 10 mM stock solutions of compounds were prepared in 100% DMSO and further diluted in 100% DMSO required concentration to 1 mM stocks. The stock compound solutions and DMSO vehicle controls were diluted to target final compound concentrations using assay buffer to a final concentration of 50 mM HEPES containing 100 mM NaCl, pH adjusted to 7.5. The MAS peptide was formulated to a 7.5 mM stock in distilled water and prior to use further diluted 1:4. […] 40 μl of enzyme was mixed with 100 μl of MnCl2 then further diluted in assay buffer to a final concentration of 16 μg/ml. To test for compound effect on MetAP2 enzyme activity, 5 μl of test compound, 10 μl of MAS substrate/amino acid oxidase mixture, 10 μl of MetAP2 was added to test wells in a 384 well black plate with blank wells containing no enzyme, replaced with 10 μl of assay buffer. All compounds were tested in duplicate on two occasions on the same day.
The plate was sealed with a TopSeal A cover and mixed briefly on an orbital mixer at 900 rpm. The plate was incubated for a further 25 minutes at 25° C. A 5× stock of Amplex buffer was prepared (0.25M sodium phosphate, pH 7.4) and stored at 4° C. […] 25 μl detection reagent was added to each well of the test plate, which was re-sealed and mixed briefly on an orbital shaker.

Test [1] relates to Male Sprague Dawley rats on high fat diet. The test is described as follows: 11 day rat DIO model (body weight, food intake, hematology, blood chemistries). In kind it is in vivo. The note with it: 264 h, DIO rat, once a day for 11 days, read-out: DIO Rat 11-day weight loss vs vehicle; for inhibition in vivo at 0.3 mg/kg: 0.3 mpk sc. From the text:
The objective of this study design is to investigate the efficacy of disclosed compounds in an 11 day rat DIO model used to screen compounds for pharmacologic efficacy on endpoints related to obesity and metabolism. Effects on body weight, food intake, hematology and blood chemistries were the primary readouts of this study design. […] Rats were fed Research Diets D12451 (45% High Fat) and provided water ad libitum. Rats were received and housed in the facility for at least two or three weeks prior to start of test article administration. On Day −4 or −3, rats were randomized into study groups based on body weight and body weights were continued to be recorded daily for the duration of the study. Daily food intake was assessed starting on Study Day −2 by weighing the hopper including the food to avoid loss of food in transfer.
Compounds were formulated into a 100% DMSO stock (at 9 mg/mL) prior to the start, and further diluted into the target working concentration using the vehicle of 10% DMSO in water. Prior to test article administration, starting on Day −3 a dosing acclimation occured with all animals receiving a subcutaneous injection of vehicle (10% DMSO) only for 3 days. Starting on Day 1, test compounds or vehicle were administered based on individual body weight, subcutaneously, once a day for 11 days. All animals were sacrificed on Day 11, approximately 2 hours following the final dosing on Day 11. After sacrifice, whole blood was collected and analyzed for hematology and blood chemistry parameters.
Compounds were tested vs. vehicle at various doses (1.0, 0.5, 0.3, 0.1, 0.03 mpk sc (mg per kg animal weight delivered subcutaneously), and the results are shown in Table 2 below.

Test [2] relates to Diet Induced Obese (DIO) C57BL/6 mice. The test is described as follows: 10 day DIO mouse model (body weight, food intake, hematology, blood chemistry). The format is in vivo. The conditions noted are these: 240 h, DIO mouse, once a day for 10 days, read-out: DIO Mouse 10-day weight loss vs vehicle; for inhibition in vivo at 0.3 mg/kg: 0.3 mpk sc; for inhibition in vivo at 1 mg/kg: 1.0 mpk sc. The essentials: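 DIO C57BL/6 mice on 60% kcal fat diet received compounds subcutaneously once daily for 10 days at 1.0, 0.5, 0.3, 0.1 or 0.03 mpk, in 10% DMSO in water, after 3-day vehicle acclimation. Body weight and food intake were recorded daily. Hematology and blood chemistry were taken on Day 11, 24 h post-final dose.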

Where [3] appears, read: recombinant human MetAP2, MAS peptide substrate, 25 minutes at 25° C.

Each structure is given as a SMILES string. Counter-ions that a name gives are not always drawn. Like-named read-outs stand apart in the source and are kept apart here.

recombinant human MetAP2, sequence (P50579 whole entry): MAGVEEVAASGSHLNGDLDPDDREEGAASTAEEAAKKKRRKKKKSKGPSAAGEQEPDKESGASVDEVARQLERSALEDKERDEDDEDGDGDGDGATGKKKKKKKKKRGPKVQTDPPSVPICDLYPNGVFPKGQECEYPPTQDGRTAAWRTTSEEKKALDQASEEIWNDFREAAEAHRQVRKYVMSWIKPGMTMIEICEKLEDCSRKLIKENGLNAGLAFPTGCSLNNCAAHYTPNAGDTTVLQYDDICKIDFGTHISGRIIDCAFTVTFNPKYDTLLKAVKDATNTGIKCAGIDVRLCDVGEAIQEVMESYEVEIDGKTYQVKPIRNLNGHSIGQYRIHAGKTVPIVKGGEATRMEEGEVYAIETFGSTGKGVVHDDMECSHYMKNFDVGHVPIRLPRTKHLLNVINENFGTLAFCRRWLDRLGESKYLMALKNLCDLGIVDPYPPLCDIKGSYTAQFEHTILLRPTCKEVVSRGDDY

Turning to `CCN(CC)CC[C@H]1CCN(C(=O)O[C@@H]2CC[C@]3(CO3)[C@@H]([C@@]3(C)O[C@@H]3CC=C(C)C)[C@@H]2OC)C1` [Example 52, (S)-((3R,4S,5S,6R)-5-methoxy-4-((2R,3R)-2-methyl-3-(3-methylbut-2-enyl)oxiran-2-yl)-1-oxaspiro[2.5]octan-6-yl) 3-(2-(diethylamino)ethyl)pyrrolidine-1-carboxylate], at recombinant human MetAP2 (setting [3]), the IC50 (as a rule, the concentration that gives 50% inhibition) is below 50 nM. The values for the inhibition in vivo at 0.3 mg/kg in test [1] and in test [2] were 4% and 8.3%, respectively.
On the same counts, the results for `CCN(CC)CC[C@H]1CCN(C(=O)O[C@@H]2CC[C@]3(CO3)[C@@H]([C@@]3(C)O[C@@H]3CC=C(C)C)[C@@H]2OC)C1` [Example 53, (S)-((3R,4S,5S,6R)-5-methoxy-4-((2R,3R)-2-methyl-3-(3-methylbut-2-enyl)oxiran-2-yl)-1-oxaspiro[2.5]octan-6-yl) 3-(2-(diethylamino)ethyl)pyrrolidine-1-carboxylate] are below 50 nM, 3% and 10.9%.
For `CNC(=O)CC1CN(C(=O)O[C@@H]2CC[C@]3(CO3)[C@@H]([C@@]3(C)O[C@@H]3CC=C(C)C)[C@@H]2OC)C1` [Example 63, (3R,4S,5S,6R)-5-methoxy-4-((2R,3R)-2-methyl-3-(3-methylbut-2-enyl)oxiran-2-yl)-1-oxaspiro[2.5]octan-6-yl 3-(2-(methylamino)-2-oxoethyl)azetidine-1-carboxylate], on recombinant human MetAP2 (setting [3]), the IC50 is below 50 nM. The inhibition in vivo at 0.3 mg/kg in test [2] was found to be 0.5%.
For `CO[C@@H]1[C@H](OC(=O)N2CC(CC(N)=O)C2)CC[C@]2(CO2)[C@H]1[C@@]1(C)O[C@@H]1CC=C(C)C` [Example 65, (3R,4S,5S,6R)-5-methoxy-4-((2R,3R)-2-methyl-3-(3-methylbut-2-enyl)oxiran-2-yl)-1-oxaspiro[2.5]octan-6-yl 3-(2-amino-2-oxoethyl)azetidine-1-carboxylate] the same measures were below 50 nM and 2.6%.
On the same counts, the results for `CCN(CC)CCNC(=O)CC1CN(C(=O)O[C@@H]2CC[C@]3(CO3)[C@@H]([C@@]3(C)O[C@@H]3CC=C(C)C)[C@@H]2OC)C1` [Example 66, (3R,4S,5S,6R)-5-methoxy-4-((2R,3R)-2-methyl-3-(3-methylbut-2-enyl)oxiran-2-yl)-1-oxaspiro[2.5]octan-6-yl 3-(2-(2-(diethylamino)ethylamino)-2-oxoethyl)azetidine-1-carboxylate] are below 50 nM and 7.6%.
For `CO[C@@H]1[C@H](OC(=O)N2CC(OC(N)=O)C2)CC[C@]2(CO2)[C@H]1[C@@]1(C)O[C@@H]1CC=C(C)C` [Example 72, (3R,4S,5S,6R)-5-methoxy-4-((2R,3R)-2-methyl-3-(3-methylbut-2-enyl)oxiran-2-yl)-1-oxaspiro[2.5]octan-6-yl 3-(carbamoyloxy)azetidine-1-carboxylate] the same measures were below 50 nM and 0.8%.
As to `CCN(CC)CCNC(=O)OC1CN(C(=O)O[C@@H]2CC[C@]3(CO3)[C@@H]([C@@]3(C)O[C@@H]3CC=C(C)C)[C@@H]2OC)C1` [Example 73, (3R,4S,5S,6R)-5-methoxy-4-((2R,3R)-2-methyl-3-(3-methylbut-2-en-1-yl)oxiran-2-yl)-1-oxaspiro[2.5]octan-6-yl 3-(((2-(diethylamino)ethyl)carbamoyl)oxy)azetidine-1-carboxylate], the concentration for half-maximal inhibition (IC50) on recombinant human MetAP2 (setting [3]) is below 50 nM. The inhibition in vivo at 0.3 mg/kg in test [2] is 7.4%.
For `CNC(=O)NC1CN(C(=O)O[C@@H]2CC[C@]3(CO3)[C@@H]([C@@]3(C)O[C@@H]3CC=C(C)C)[C@@H]2OC)C1` [Example 84, (3R,4S,5S,6R)-5-methoxy-4-((2R,3R)-2-methyl-3-(3-methylbut-2-enyl)oxiran-2-yl)-1-oxaspiro[2.5]octan-6-yl 3-(3-methylureido)azetidine-1-carboxylate] the same measures were below 50 nM and 0.8%.
Regarding `CCNCCC1CN(C(=O)O[C@@H]2CC[C@]3(CO3)[C@@H]([C@@]3(C)O[C@@H]3CC=C(C)C)[C@@H]2OC)C1` [Example 121, (3R,4S,5S,6R)-5-methoxy-4-((2R,3R)-2-methyl-3-(3-methylbut-2-en-1-yl)oxiran-2-yl)-1-oxaspiro[2.5]octan-6-yl3-(2-(ethylamino)ethyl)azetidine-1-carboxylate], the IC50 at recombinant human MetAP2 (setting [3]) was below 50 nM. Further, the inhibition in vivo at 0.3 mg/kg in test [1] was 5%. For the same molecule, in test [2], the inhibition in vivo at 0.3 mg/kg came out at 7.5% and the inhibition in vivo at 1 mg/kg worked out at 12.6%.
For `CCNC[C@@H]1CCN1C(=O)O[C@@H]1CC[C@]2(CO2)[C@@H]([C@@]2(C)O[C@@H]2CC=C(C)C)[C@@H]1OC` [Example 122, (S)-((3R,4S,5S,6R)-5-methoxy-4-((2R,3R)-2-methyl-3-(3-methylbut-2-enyl)oxiran-2-yl)-1-oxaspiro[2.5]octan-6-yl) 2-((ethylamino)methyl)azetidine-1-carboxylate], the IC50 on recombinant human MetAP2 (setting [3]) was below 50 nM. In addition, the inhibition in vivo at 0.3 mg/kg in test [2] came to 3.2%.
Turning to `CCNC[C@H]1CCN1C(=O)O[C@@H]1CC[C@]2(CO2)[C@@H]([C@@]2(C)O[C@@H]2CC=C(C)C)[C@@H]1OC` [Example 123, (R)-((3R,4S,5S,6R)-5-methoxy-4-((2R,3R)-2-methyl-3-(3-methylbut-2-enyl)oxiran-2-yl)-1-oxaspiro[2.5]octan-6-yl) 2-((ethylamino)methyl)azetidine-1-carboxylate formate], the IC50 on recombinant human MetAP2 (setting [3]) was below 50 nM. Further, the inhibition in vivo at 0.3 mg/kg in test [1] turned out to be 1%. Also, the inhibition in vivo at 1 mg/kg was 5.4% in test [1] (1.0 mpk sc) and 9.7% in test [2].
For the molecule `CCNCCCC1CN(C(=O)O[C@@H]2CC[C@]3(CO3)[C@@H]([C@@]3(C)O[C@@H]3CC=C(C)C)[C@@H]2OC)C1` [Example 124, (3R,4S,5S,6R)-5-methoxy-4-((2R,3R)-2-methyl-3-(3-methylbut-2-enyl)oxiran-2-yl)-1-oxaspiro[2.5]octan-6-yl 3-(3-(ethylamino)propyl)azetidine-1-carboxylate formate], at recombinant human MetAP2, the IC50 is below 50 nM. In test [2], the inhibition in vivo at 0.3 mg/kg was 4.9%.

For the origin of these results see patent US9682965B2, “Fumagillol heterocyclic compounds and methods of making and using same” (Zafgen, Inc., priority 2015, dated 2017).
